According to patent US7700560B2 (University of Maryland, Baltimore County, priority 2003, dated 2010):

What was measured:
human GlxI = biological target: T1, human GlxI (Homo sapiens, UniProt Q04760); assay: Competitive inhibition constants (Kis) with human GlxI; assay type: biochemical
T1 construct: hGlxI from human erythrocytes; from tissue; host or cells: human erythrocytes
T1 sequence (Q04760 2-184 limits assumed): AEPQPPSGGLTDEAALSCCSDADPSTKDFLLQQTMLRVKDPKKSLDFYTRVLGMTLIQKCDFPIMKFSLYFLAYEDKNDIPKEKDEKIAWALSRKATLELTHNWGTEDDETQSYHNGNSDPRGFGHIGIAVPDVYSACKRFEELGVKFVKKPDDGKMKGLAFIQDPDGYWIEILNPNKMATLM
Procedure: (§1) Competitive inhibition constants (Kis) of bivalent and monovalent enzyme inhibitors with human GlxI or yeast GlxI (yGlxI) were obtained from the change in the initial rates of product formation at various concentrations of the substrate in the presence or absence of the inhibitor. To a 1 ml cuvette containing 50 mM sodium phosphate buffer, pH 7.0, 0.5 mM EDTA, 25° C. and different concentrations of thiohemiacetal substrates with fixed concentrations of inhibitor was added approximately 0.02 U of enzyme. The initial rates of product formation were followed on the basis of the increase in absorbancy at 240 nm. Inhibition constants were obtained by fitting the initial rate data to the equation for competitive inhibition.

yeast GlxI = biological target: T2, yeast GlxI (Saccharomyces cerevisiae, UniProt P50107); assay: Competitive inhibition constants (Kis) with yeast GlxI; assay type: biochemical; settings: sodium phosphate buffer, 50 mM, pH 7, 25° C.; mean (±S.D.) duplicate; read-out: Ki, yGlxI
T2 sequence (P50107 1-326): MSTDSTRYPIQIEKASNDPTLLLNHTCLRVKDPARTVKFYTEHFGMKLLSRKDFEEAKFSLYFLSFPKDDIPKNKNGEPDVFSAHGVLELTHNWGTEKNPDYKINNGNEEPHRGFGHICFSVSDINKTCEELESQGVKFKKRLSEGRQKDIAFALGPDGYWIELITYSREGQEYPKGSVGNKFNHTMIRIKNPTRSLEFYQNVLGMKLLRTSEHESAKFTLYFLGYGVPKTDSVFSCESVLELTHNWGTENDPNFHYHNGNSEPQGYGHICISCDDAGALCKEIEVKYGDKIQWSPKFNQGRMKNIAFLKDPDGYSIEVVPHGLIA
Procedure: as §1

bovine liver GlxII = biological target: T3, bovine liver GlxII (Bos taurus, UniProt Q3B7M2); assay: Competitive inhibition constants (Kis) with bovine liver GlxII; assay type: biochemical; settings: sodium phosphate buffer, 50 mM, pH 7, 25° C.; mean (±S.D.) duplicate; read-out: Ki, bGlxII
T3 construct: yeast GlxI (yGlxI) and bovine liver GlxII (bGlXII); from tissue; host or cells: bovine liver

GSH peroxidase = assay: Inhibition of GSH peroxidase; assay type: biochemical; settings: up to an inhibitor concentration of 20 μM
[1] = biological target: T4, human placental GSH transferase (Homo sapiens, UniProt P09211); assay: Inhibition of human placental GSH transferase; assay type: biochemical; settings: up to an inhibitor concentration of 20 μM
T4 construct: human placental GSH transferase; from tissue; host or cells: human placenta
T4 sequence (P09211 2-210 limits assumed): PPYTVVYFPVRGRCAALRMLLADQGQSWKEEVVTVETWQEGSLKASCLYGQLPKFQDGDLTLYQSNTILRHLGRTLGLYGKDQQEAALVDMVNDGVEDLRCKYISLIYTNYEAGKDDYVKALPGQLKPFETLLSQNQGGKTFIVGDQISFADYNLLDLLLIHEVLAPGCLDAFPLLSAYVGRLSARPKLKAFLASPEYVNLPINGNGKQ

[2] = test system: DMS114 lung and DU145 prostate xenografts; settings: dicyclopentyl diester; cited from earlier work
[3] = test system: lung tumor cell lines NCI-H460, NCI-H226, A549, NCI-H23, DMS273, DMS114, NCI-H522; settings: dicyclopentyl diester; cited from earlier work

| Structure (SMILES) | mode of inhibition of hGlxI (human GlxI; hGlxI from human erythrocytes, reciprocal plot FIG. 4) | binding selectivity hGlxI versus bGlxII (human GlxI; ratio of Ki bGlxII / hGlxI) [fold] | binds more tightly to hGlxI than to yGlxI (human GlxI; ratio of Ki yGlxI / hGlxI) | Ki (human GlxI; sodium phosphate buffer, 50 mM, pH 7, 25° C., mean (±S.D.) triplicate, read-out: Ki, hGlxI) [nM] | Ki (yeast GlxI) [nM] | Ki (bovine liver GlxII) [nM] | inhibitory activity on GSH peroxidase (GSH peroxidase) | inhibitory activity on human placental GSH transferase [1] | inhibition of DMS144 and human prostate DU145 xenografts in nude mice [2] | inhibition of lung tumor cell lines in vitro [3] |
| --- | --- | --- | --- | --- | --- | --- | --- | --- | --- | --- |
| O=C(O)CNC(=O)[C@H](CSC(=O)N(O)c1ccc(Cl)cc1)NC(=O)CC[C@H](NC(=O)CCNC(=O)CCNC(=O)CCNC(=O)CCNC(=O)CCNC(=O)CCNC(=O)CCCCCCC(=O)NCCC(=O)NCCC(=O)NCCC(=O)NCCC(=O)NCCC(=O)NCCC(=O)N[C@@H](CCC(=O)N[C@@H](CSC(=O)N(O)c1ccc(Cl)cc1)C(=O)NCC(=O)O)C(=O)O)C(=O)O [[CHG(β-Ala)n]2sub., n = 6, [CHG (β-ala)6]2suberate diamide] | competitive inhibitor | 148 | about 7500 fold | 0.96 ± 0.06 | 7200 ± 100 | 142 ± 1 | no inhibitory activity | no inhibitory activity |  |  |
| NC(CCC(=O)NC(CSCc1ccc(Br)cc1)C(=O)NCC(=O)OC1CCCC1)C(=O)OC1CCCC1 (stereo not shown) |  |  |  |  |  |  |  |  | effectively inhibited | effectively inhibited |
